{
  "source": "ChEMBL document CHEMBL1201862",
  "about": "“PubChem BioAssay data set” (2004)",
  "key": {"Cannabinoid receptor 2 [1]": {"target": "T1, Cannabinoid receptor 2 (Homo sapiens, UniProt P34972)", "assay": "SAR analysis of antagonists of the Cannabinoid Receptor 2 using an Image-Based Assay. [Related pubchem assays (depositor defined):AID2013, AID2026]", "format": "functional"}, "[2]": {"target": "T2, G-protein coupled receptor 55 (Homo sapiens, UniProt Q9Y2T6)", "assay": "blockade of LPI-induced GPR55 arrestin translocation – imaging, U2OS, beta-arrestin-GFP, LPI agonist, set 2, SAR follow-up (AID 2820)", "format": "functional"}, "[3]": {"target": "T2, G-protein coupled receptor 55", "assay": "inhibition of LPI-stimulated GPR55 beta-arrestin translocation – imaging, U2OS, beta-arrestin-GFP, LPI agonist, primary screen (AID 2013);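 note: antagonist potency measured as reduced agonist-driven arrestin aggregation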", "format": "functional"}, "[4]": {"target": "Tyrosine-protein phosphatase non-receptor type 11 (Homo sapiens, UniProt Q06124)", "assay": "PTPN11 enzyme inhibitors – biochemical, selectivity assay for STEP inhibitor project, dose response (AID 602367)", "format": "functional", "details": "read-out: IC50_Mean"}, "[5]": {"target": "Tyrosine-protein phosphatase non-receptor type 5 (Homo sapiens, UniProt P54829)", "assay": "PTPN5 enzyme inhibition – biochemical, fluorescence intensity, uHTS hits, confirmation (AID 602372)", "format": "functional", "details": "read-out: IC50_Mean"}, "[6]": {"target": "Induced myeloid leukemia cell differentiation protein Mcl-1 (Homo sapiens, UniProt Q07820)", "format": "functional"}, "Cannabinoid receptor 2 [7]": {"target": "T1, Cannabinoid receptor 2", "assay": "SAR analysis of agonists of the Cannabinoid Receptor 2 using an Image-Based Assay. [Related pubchem assays (depositor defined):AID2013, AID2026]", "format": "functional"}, "Cannabinoid receptor 2 [8]": {"target": "T1, Cannabinoid receptor 2", "assay": "SAR analysis of antagonists of the Cannabinoid Receptor 2 using an Image-Based Assay - Set 3. [Related pubchem assays (depositor defined):AID2013, AID2026]", "format": "functional"}, "[9]": {"target": "T3, G-protein coupled receptor 35 (Homo sapiens, UniProt Q9HC97)", "assay": "SAR analysis of Agonists of the GPR35 Receptor using an Image-Based Assay - Set 2. [Related pubchem assays (depositor defined):AID2013, AID2026]", "format": "functional"}, "[10]": {"target": "T3, G-protein coupled receptor 35", "assay": "SAR analysis of Antagonists of the GPR35 Receptor using an Image-Based Assay - Set 3. [Related pubchem assays (depositor defined):AID2013, AID2026]", "format": "functional"}, "[11]": {"target": "T2, G-protein coupled receptor 55", "assay": "SAR Analysis of Selective Antagonists of GPR55 using an Image-Based Assay - Set 4. [Related pubchem assays (depositor defined):AID2013, AID2026]", "format": "functional"}, "Cannabinoid receptor 1 [12]": {"target": "T4, Cannabinoid receptor 1 (Homo sapiens, UniProt P21554)", "assay": "SAR analysis of antagonists of the Cannabinoid Receptor 1 using an Image-Based Assay - Set 2. [Related pubchem assays (depositor defined):AID2013, AID2026]", "format": "functional"}, "Cannabinoid receptor 1 [13]": {"target": "T4, Cannabinoid receptor 1", "assay": "SAR analysis of antagonists of the Cannabinoid Receptor 1 using an Image-Based Assay - Set 4. [Related pubchem assays (depositor defined):AID2013, AID2026]", "format": "functional"}, "Cannabinoid receptor 2 [14]": {"target": "T1, Cannabinoid receptor 2", "assay": "SAR analysis of agonists of the Cannabinoid Receptor 2 using an Image-Based Assay - Set 3. [Related pubchem assays (depositor defined):AID2013, AID2026]", "format": "functional"}, "Caspase-6": {"target": "T5, Caspase-6 (Homo sapiens, UniProt P55212)", "T5 sequence (P55212 whole entry)": "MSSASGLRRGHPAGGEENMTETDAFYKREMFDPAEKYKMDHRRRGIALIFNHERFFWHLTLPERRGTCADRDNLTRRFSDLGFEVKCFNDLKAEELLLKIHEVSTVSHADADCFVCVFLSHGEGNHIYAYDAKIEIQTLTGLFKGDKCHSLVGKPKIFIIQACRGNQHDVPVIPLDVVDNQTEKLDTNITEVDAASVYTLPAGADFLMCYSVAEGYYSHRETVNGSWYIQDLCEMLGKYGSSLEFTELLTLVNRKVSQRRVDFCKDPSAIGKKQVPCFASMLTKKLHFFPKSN", "assay": "inhibition of CASP6 peptide cleavage – biochemical, VEID-R110 fluorescence, cherry-pick, dose response (AID 720632)"}, "Cannabinoid receptor 1 [15]": {"target": "T4, Cannabinoid receptor 1", "assay": "SAR analysis of agonists of the Cannabinoid Receptor 1 using an Image-Based Assay - Set 2. [Related pubchem assays (depositor defined):AID2013, AID2026]", "format": "functional"}, "[16]": {"target": "Dual specificity protein phosphatase 3 (Homo sapiens, UniProt P51452)", "assay": "VHR phosphatase inhibition, dose response, selectivity assay for STEP inhibitor project, biochemical (AID 602374)", "format": "functional", "details": "read-out: IC50_Mean"}, "Troponin, cardiac muscle": {"target": "Troponin, cardiac muscle (Homo sapiens, UniProt P19429+P45379+P63316)", "assay": "Fluorescence-based biochemical high throughput dose response assay for activators of the calcium sensitivity of cardiac Regulated Thin Filaments (RTF). [Related pubchem assays (depositor defined):AID493008, AID493018, AID504382, AID504383]", "format": "protein-complex assay"}, "[17]": {"target": "Intestinal-type alkaline phosphatase (Homo sapiens, UniProt P09923)", "assay": "human intestinal alkaline phosphatase activators, dose response, biochemical, luminescence, uHTS hits (AID 463120)", "format": "functional"}},
  "note": "Activity calls are given as the source filed them.",
  "data": [
    {"smiles": "Cc1cc(C)c2nc(-c3ccccn3)cc(C(=O)Nc3ccc(S(=O)(=O)Nc4onc(C)c4C)cc3)c2c1", "values": [
      {"measurement": "IC50", "setting": "Cannabinoid receptor 2 [1]", "value": "> 32 µM (inactive)"},
      {"measurement": "IC50", "setting": "[2]", "value": "0.136 µM (active)"},
      {"measurement": "IC50", "setting": "[3]", "value": "< 0.5 µM (active)"},
      {"measurement": "IC50", "setting": "[4]", "value": "2.95 µM (active)"},
      {"measurement": "IC50", "setting": "[5]", "value": "28.3 µM (inactive)"},
      {"measurement": "IC50", "setting": "[6]", "value": "4.01 µM (active)"},
      {"measurement": "EC50", "setting": "Cannabinoid receptor 2 [7]", "value": "> 32 µM (inactive)"},
      {"measurement": "IC50", "setting": "Cannabinoid receptor 2 [8]", "value": "> 32 µM (inactive)"},
      {"measurement": "EC50", "setting": "[9]", "value": "> 32 µM (inactive)"},
      {"measurement": "IC50", "setting": "[10]", "value": "> 32 µM (inactive)"},
      {"measurement": "IC50", "setting": "[11]", "value": "0.263 µM (active)"},
      {"measurement": "IC50", "setting": "Cannabinoid receptor 1 [12]", "value": "> 32 µM (inactive)"},
      {"measurement": "IC50", "setting": "Cannabinoid receptor 1 [13]", "value": "24.6 µM (inactive)"},
      {"measurement": "EC50", "setting": "Cannabinoid receptor 2 [14]", "value": "> 32 µM (inactive)"},
      {"measurement": "AC50", "setting": "Caspase-6", "value": "14.7 µM (active)"},
      {"measurement": "EC50", "setting": "Cannabinoid receptor 1 [15]", "value": "> 32 µM (inactive)"},
      {"measurement": "IC50", "setting": "[16]", "value": "2.73 µM (active)"}
    ]},
    {"smiles": "Cc1ccc(-c2ccc(OC(=O)c3ccc(=O)[nH]c3)c(C)c2)cc1", "values": [
      {"measurement": "EC50", "setting": "Troponin, cardiac muscle", "value": "> 71.5 µM (inactive)"}
    ]},
    {"smiles": "O=C(N/N=C/c1ccc2cccnc2c1)c1nc(O)c2ccccc2n1", "values": [
      {"measurement": "EC50", "setting": "[17]", "value": "7.78 µM (active)"}
    ]}
  ]
}
